Laboratory results taken from ChEMBL document CHEMBL3507680, “University of Dundee, Gates Library screen for HepG2 cell viability”.

Assay: Human HepG2 cell viability assay in 384 well format
Type: toxicity, cell-based
Parameters: dose 125 nL, time 70.5 hour; concentration not given beside the values
Details: HepG2 cells, read-out: Inhibition

Row | Structure (SMILES) | cytotoxicity at 70.5 h [%]
1 | O=C(NCCN1CCOCC1)c1ccc(-c2ccc(F)cc2)nc1O | -3.89
2 | CN1CC2(CCN(CCOCCO)CC2)CC(c2ccccc2)C1=O (configuration not stated) | 29.9
3 | CC(=O)NC1CC(C)(C)Cc2c1cnn2-c1cccc(F)c1 (configuration not stated) | -9.9
4 | COc1nc2c(cc1C(=O)NCCc1nc(C)c(C(=O)O)s1)CCC2 | 10
5 | O=C1CC(c2ccccc2)c2cnn(C3CCCC3)c2N1 (configuration not stated) | 18.5
6 | Cc1ccc2c(c1)OC(C)(C)CC2NC(=O)C1CCN(C)CC1 (configuration not stated) | -9.96
7 | O=C(CCN1CCOCC1)N1CCC(Cc2ccc(CO)cc2)C1 (configuration not stated) | -2.12
8 | O=C(CN1CCCC1Cn1cncn1)NCCOc1ccc(F)cc1 (configuration not stated) | -0.118
9 | Cc1ccccc1C1(CNC(=O)NC(C)c2nncn2C)CC1 (configuration not stated) | -2.77
10 | CC(NC(=O)NCC1(c2ccc(Cl)cc2)CC1)c1nncn1C (configuration not stated) | -2.86
11 | O=C(CN1CCCC1Cn1cccn1)NCCOc1cccc(F)c1 (configuration not stated) | -0.693
12 | CCNc1cc2c(nn1)CCN(C(=O)CCc1c(C)noc1C)C2 | 18.9
13 | Cc1nc(C2CCCN(C(=O)c3ccc(OCC4CC4)nc3)C2)no1 (configuration not stated) | -2.87
14 | CCOc1cc(C(=O)N2CCCC(c3noc(C)n3)C2)ccc1OC (configuration not stated) | -4.06
15 | CCNc1cc2c(nn1)CCN(C(=O)CCc1c(C)noc1Cl)C2 | -4.23
16 | CCNc1cc2c(nn1)CCN(C(=O)Cc1c(C)nn(C)c1C)C2 | -2.18
17 | Cc1cccc(C)c1OCCNC(=O)CN1CCN(C)CC1C (configuration not stated) | 16.7
18 | CCOc1ncccc1NC(=O)N1CCN(CC(=O)NC)CC1 | -8.56
19 | Fc1cc(CN2CCCC2Cn2cncn2)c2ncccc2c1 (configuration not stated) | 4.94
20 | CCOc1ncccc1NC(=O)N1CCN(Cc2ccncc2)CC1 | -4.21
21 | Cc1ccc(C(C)N(C)Cc2nc3c(cnn3C)c(=O)[nH]2)c(C)c1 (configuration not stated) | -4.81
22 | CN(CCCc1cc(-c2ccccc2)no1)S(C)(=O)=O | 8.59
23 | COc1ccccc1C(C)N(C)Cc1nc2c(cnn2C)c(=O)[nH]1 (configuration not stated) | -8.94
24 | O=C1NCCN1C1CCN(CCOc2ccccc2Cl)CC1 | 0.552

Row | Structure (SMILES) | cytotoxicity at 70.5 h [%]
25 | Cn1ccnc1CN1CCN(Cc2ccc(C#N)cc2F)CC1 | -1.66
26 | Cn1ccnc1CN1CCN(Cc2ccc(C#N)cc2)CC1 | -2.96
27 | CC1CN(Cc2ccc(C#N)cc2F)CCN1Cc1nccn1C (configuration not stated) | -5.45
28 | COc1ccccc1OCCNC(=O)CN1CCN(C)CC1C (configuration not stated) | -2.58
29 | CC1CN(C)CCN1CC(=O)NCCOc1ccc2c(c1)OCO2 (configuration not stated) | 9.64
30 | CCc1ccc(S(=O)(=O)Nc2cc(C(=O)O)ccc2F)s1 | -3.74
31 | O=C1NCCN1C1CCN(CCOc2cccc3ccccc23)CC1 | 0.611
32 | CN1CCOC(CNCc2ccccc2OCc2ccccn2)C1 (configuration not stated) | -9.16
33 | CNc1nc(CNC(=O)Nc2cccc(CN(C)C)c2)cs1 | 0.614
34 | Cc1ccc(CC(=O)N2CCCC(c3cc(C(N)=O)[nH]n3)C2)cn1 (configuration not stated) | -2.37
35 | CNc1nc(CNC(=O)Nc2cccc(CC(F)(F)F)c2)cs1 | -4.82
36 | O=C(CN1CCOC(Cn2cncn2)C1)NCc1cccs1 (configuration not stated) | 29.2
37 | Cc1ccc(C2CCCN2S(=O)(=O)N(C)CCc2ccccn2)o1 (configuration not stated) | 4.42
38 | CSc1ccc(CN(C)C(=O)c2cc3c([nH]c2=O)CCCC3=O)cc1 | -2.82
39 | Cc1noc(C)c1C(=O)NCCSCc1cccs1 | 0.282
40 | CS(=O)(=O)NC1CCN(C(=O)NCCc2ccccn2)CC1 | 13.9
41 | CS(=O)(=O)NC1CCN(C(=O)NCc2ccccn2)CC1 | -2.65
42 | CCc1nc(CN2CCN(C(=O)c3cncnc3CC)CC2)cs1 | -3.73
43 | COCCCNC(=O)CN(C)C(=O)c1ccc(OC)cc1O | -5.57
44 | Cc1cc(C)n(CC2CN(CC(=O)NCc3cccs3)CCO2)n1 (configuration not stated) | 13.4
45 | COCCNC(=O)CN1CCN(c2nc(C)cs2)CC1 | -3.26
46 | O=C(CN1CCOC(Cn2cccn2)C1)NCc1ccco1 (configuration not stated) | -2.4
47 | O=C(CN1CCOC(Cn2cccn2)C1)NCCc1cccs1 (configuration not stated) | -4.13
